Source: EP2345639A1, “Cyclic hydroxylamine derivatives, their preparation and use as antioxidants” (ABIOGEN PHARMA S.p.A., priority 2009, dated 2011)
Read-outs that look alike come from different tables or passages of the source.

Tests used:
[1] = system: healthy animals; test: Effect of the compounds on healthy animals (same in vivo assay, cerebral oxidative parameters); parameters: species or system mice; settings: healthy mice; for Average % variation with respect to the vehicle: 50 mg/kg IP for three consecutive days, mean over all parameters, D = doxorubicin alone, 50 mg/kg
Summary of the method: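 Mice (10 per group) received compound 50 mg/kg IP on days 0–2, with half also given doxorubicin 16.7 mg/kg IP on day 0; brains were collected on day 3. Brain homogenates (pH 7.4) were assayed colorimetrically for […], protein, oxidized protein, GSH, CAT, SOD, GST and GPx. Result is mean % change across all parameters versus vehicle.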

[2] = Brain-to-plasma concentration ratio in mice; assay type: in vivo, Female CD-1 mice; settings: female, CD-1, mouse, ip, 25 mg/kg intraperitoneal, area under the curve of brain and plasma concentrations 0 to 60 minutes, read-out: B/P ratio
[3] = system: doxorubicin-induced cerebral oxidative stress in mice; test: In vivo assay of cerebral oxidative stress induced in mice by doxorubicin (model and oxidized animals)
Summary of the method: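 Mice (5/arm) dosed 50 mg/kg compound IP days 0–2; one arm also got doxorubicin 16.7 mg/kg IP after the day-0 dose. Brains collected day 3; homogenate (pH 7.4) assayed colorimetrically for oxidized protein, GSH, CAT, SOD, GST, GPx, normalized to protein. Effect: % inhibition of doxorubicin-induced change.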

[4] = TEAC method (Trolox Equivalent Antioxidant Capacity Assay); assay type: biochemical; settings: ratio of gradient to gradient of Trolox; 650 nm, 37 °C, about 90 minutes
Summary of the method: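 ABTS radical cation generated with H2O2/HRP in 50 mM citrate pH 4.5. Compounds at six concentrations between 25 and 300 µM mixed with the radical solution at 37 °C, and absorbance loss read at 650 nm until stable (~90 min). TEAC is the slope of absorbance versus nmol compound divided by the Trolox slope.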

[5] = 50 mg/kg IP x3 days, percentage change relative to the vehicle

CC1(C)CC(=O)C(C2CCCCN2O)C(=O)C1 (centres unmarked) [(3), 2-(1-hydroxypiperidin-2-yl)-5,5-dimethylcyclohexane-1,3-dione]
Average % variation with respect to the vehicle [1]: did not significantly alter the parameters
Average % variation with respect to the vehicle ([1]; listed as V+(3)): -0.2%
Brain/BWi [1, 5]: 1.4%
CAT/pr [1, 5]: -10.5%
GPX/pr [1, 5]: -1.8%
GSH/pr [1, 5]: 2.0%
GST/pr [1, 5]: 4.1%
Prot. Hmg [1, 5]: 2.5%
Prot. Ox/pr [1, 5]: -8.6%
SOD/pr [1, 5]: -2.8%
Kp [2]: > 0.1
inhibition in vivo at 50 mg/kg ([3]; Mus musculus, ip, overall, with respect to the vehicle, read-out: inhibition of the doxorubicin effect): ≥ 50%
change in vivo at 50 mg/kg ([3]; Mus musculus, ip, oxidized mice, % inhibition relative to change due to doxorubicin alone, vs its own, read-out: Brain/BWi its own): 7.2%
change in vivo at 50 mg/kg ([3]; Mus musculus, ip, oxidized mice, % inhibition relative to change due to doxorubicin alone, vs its own, read-out: CAT/pr its own): -87.1%
change in vivo at 50 mg/kg ([3]; Mus musculus, ip, oxidized mice, % inhibition relative to change due to doxorubicin alone, vs its own, read-out: GPX/pr its own): -108%
change in vivo at 50 mg/kg ([3]; Mus musculus, ip, oxidized mice, % inhibition relative to change due to doxorubicin alone, vs its own, read-out: GSH/pr its own): -11.2%
change in vivo at 50 mg/kg ([3]; Mus musculus, ip, oxidized mice, % inhibition relative to change due to doxorubicin alone, vs its own, read-out: GST/pr its own): -50.5%
change in vivo at 50 mg/kg ([3]; Mus musculus, ip, oxidized mice, % inhibition relative to change due to doxorubicin alone, vs its own, read-out: Prot. Hmg its own): -125%
change in vivo at 50 mg/kg ([3]; Mus musculus, ip, oxidized mice, % inhibition relative to change due to doxorubicin alone, vs its own, read-out: Prot. Ox/pr its own): 195%
change in vivo at 50 mg/kg ([3]; Mus musculus, ip, oxidized mice, % inhibition relative to change due to doxorubicin alone, vs its own, read-out: SOD/pr its own): 30.8%
change in vivo at 50 mg/kg ([3]; Mus musculus, ip, oxidized mice, % inhibition relative to change due to doxorubicin alone, vs vehicle, read-out: Brain/BWi vehicle): -53.6%
change in vivo at 50 mg/kg ([3]; Mus musculus, ip, oxidized mice, % inhibition relative to change due to doxorubicin alone, vs vehicle, read-out: CAT/pr vehicle): -23.5%
change in vivo at 50 mg/kg ([3]; Mus musculus, ip, oxidized mice, % inhibition relative to change due to doxorubicin alone, vs vehicle, read-out: GPX/pr vehicle): -91.9%
change in vivo at 50 mg/kg ([3]; Mus musculus, ip, oxidized mice, % inhibition relative to change due to doxorubicin alone, vs vehicle, read-out: GSH/pr vehicle): -49.6%
change in vivo at 50 mg/kg ([3]; Mus musculus, ip, oxidized mice, % inhibition relative to change due to doxorubicin alone, vs vehicle, read-out: GST/pr vehicle): -110%
change in vivo at 50 mg/kg ([3]; Mus musculus, ip, oxidized mice, % inhibition relative to change due to doxorubicin alone, vs vehicle, read-out: Prot. Hmg vehicle): -114%
change in vivo at 50 mg/kg ([3]; Mus musculus, ip, oxidized mice, % inhibition relative to change due to doxorubicin alone, vs vehicle, read-out: Prot. Ox/pr vehicle): -45.9%
change in vivo at 50 mg/kg ([3]; Mus musculus, ip, oxidized mice, % inhibition relative to change due to doxorubicin alone, vs vehicle, read-out: SOD/pr vehicle): 86.7%
change in vivo at 50 mg/kg ([3]; Mus musculus, oxidized mice, 50 mg/kg IP x3 days + doxorubicin, computed as a function of its own (healthy, compound only), read-out: mean % effect relative to doxorubicin alone, all parameters (Its own)): -76.6%
inhibition of the doxorubicin effect ([3]; overall, compared with its own vehicle): at the level of edaravone
mean % effect relative to doxorubicin alone, all parameters (Vehicle) ([3]; oxidized mice, 50 mg/kg IP x3 days + doxorubicin, computed as a function of the vehicle): -50.3%
TEAC [4]: 1.0
